Measured values published in PubChem BioAssay (NCI).
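Results reflect a 48-hour exposure of cells in 96-well plates to compound at five concentrations. TGI: concentration producing complete growth inhibition.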

Legend:
Assay in all cases: NCI tumour cell line growth inhibition, 48 h
[1] = tested on: OVCAR-4 ovarian
[2] = tested on: SK-MEL-5 melanoma
[3] = tested on: EKVX NSCLC
[4] = tested on: DLD-1 colon
[5] = tested on: UACC-62 melanoma
[6] = tested on: 786-0 renal
[7] = tested on: SF-268 CNS
[8] = tested on: SK-OV-3 ovarian
[9] = tested on: XF 498 CNS
[10] = tested on: ACHN renal
[11] = tested on: NCI-H23 lung
[12] = tested on: HCT-15 colon
[13] = tested on: M14 melanoma
[14] = tested on: K-562 leukemia
[15] = tested on: SN12C renal
[16] = tested on: MOLT-4 leukemia
[17] = tested on: A549 NSCLC
[18] = tested on: DMS 273 small cell lung
[19] = tested on: SNB-19 CNS
[20] = tested on: COLO 205 colon
[21] = tested on: DMS 114 small cell lung
[22] = tested on: RXF-631 renal
[23] = tested on: UO-31 renal
[24] = tested on: HL-60(TB) leukemia
[25] = tested on: HOP-62 NSCLC
[26] = tested on: HCC-2998 colon
[27] = tested on: HT29 colon
[28] = tested on: CCRF-CEM leukemia
[29] = tested on: SF-295 CNS
[30] = tested on: OVCAR-8 ovarian
[31] = tested on: SW-620 colon
[32] = tested on: SNB-75 CNS
[33] = tested on: HCT-116 colon
[34] = tested on: SK-MEL-28 melanoma
[35] = tested on: OVCAR-3 ovarian
[36] = tested on: KM20L2 colon
[37] = tested on: SF-539 CNS
[38] = tested on: TK-10 renal
[39] = tested on: M19-MEL melanoma
[40] = tested on: IGROV1 ovarian
[41] = tested on: NCI-H460 lung
[42] = tested on: LOX IMVI melanoma
[43] = tested on: LXFL 529 NSCLC
[44] = tested on: SNB-78 CNS
[45] = tested on: U251 CNS
[46] = tested on: CAKI-1 renal
[47] = tested on: UACC-257 melanoma
[48] = tested on: HOP-92 NSCLC
[49] = tested on: SK-MEL-2 melanoma
[50] = tested on: RXF 393 renal
[51] = tested on: NCI-H226 lung
[52] = tested on: MALME-3M melanoma
[53] = tested on: OVCAR-5 ovarian
[54] = tested on: A498 renal
[55] = tested on: SR leukemia
[56] = tested on: RPMI-8226 leukemia

Question: What does the source list for `CCCCN1C(=O)C2c3[nH]c4ccccc4c3C3CCCCC3C2C1=O` (mixture of isomers)?
Answer: TGI [1]: 8.22 µM; TGI [2]: 90.3 µM; TGI [3]: 66.8 µM; TGI [4]: > 100 µM; TGI [5]: 79.3 µM; TGI [6]: 20.2 µM; TGI [7]: 48.4 µM; TGI [8]: 47.7 µM; TGI [9]: 27.8 µM; TGI [10]: 27.7 µM; TGI [11]: 78.1 µM; TGI [12]: > 100 µM; TGI [13]: 42.8 µM; TGI [14]: 28.3 µM; TGI [15]: > 100 µM; TGI [16]: 19.4 µM; TGI [17]: 45 µM; TGI [18]: 23.5 µM; TGI [19]: 64.2 µM; TGI [20]: > 100 µM; TGI [21]: 44.6 µM; TGI [22]: 36.4 µM; TGI [23]: 47.5 µM; TGI [24]: 29.1 µM; TGI [25]: 19.4 µM; TGI [26]: 62.4 µM; TGI [27]: > 100 µM; TGI [28]: 37.5 µM; TGI [29]: 23.7 µM; TGI [30]: 58.8 µM; TGI [31]: > 100 µM; TGI [32]: 21.9 µM; TGI [33]: 23.6 µM; TGI [34]: > 100 µM; TGI [35]: 28.9 µM; TGI [36]: > 100 µM; TGI [37]: 28.6 µM; TGI [38]: 33.9 µM; TGI [39]: > 100 µM; TGI [40]: 75.9 µM; TGI [41]: 31.2 µM; TGI [42]: 24.1 µM; TGI [43]: 29.1 µM; TGI [44]: 50 µM; TGI [45]: 36.3 µM; TGI [46]: 20.4 µM

Question: `O=c1/c(=C/c2ccccc2O)sc2nc3ccccc3n12` was tested. Which TGI [1] did it give?
Answer: > 100 µM

Question: What about the TGI [2] of the same molecule?
Answer: > 100 µM

Question: And the TGI [3]?
Answer: 82 µM

Question: And the TGI [4]?
Answer: > 100 µM

Question: What about the TGI [5] of the same molecule?
Answer: 80.6 µM

Question: And the TGI [47]?
Answer: > 100 µM

Question: What about the TGI [48] of the same molecule?
Answer: > 100 µM

Question: And the TGI [6]?
Answer: > 100 µM

Question: And the TGI [49]?
Answer: > 100 µM

Question: What about the TGI [50] of the same molecule?
Answer: 57.9 µM

Question: And the TGI [7]?
Answer: 56.7 µM

Question: And the TGI [51]?
Answer: > 100 µM

Question: And the TGI [10]?
Answer: > 100 µM

Question: What about the TGI [11] of the same molecule?
Answer: > 100 µM

Question: And the TGI [12]?
Answer: 49.8 µM

Question: And the TGI [13]?
Answer: > 100 µM

Question: What about the TGI [14] of the same molecule?
Answer: 99.5 µM

Question: And the TGI [15]?
Answer: > 100 µM

Question: And the TGI [16]?
Answer: 43.7 µM

Question: And the TGI [17]?
Answer: > 100 µM

Question: What about the TGI [18] of the same molecule?
Answer: > 100 µM

Question: What about the TGI [19] of the same molecule?
Answer: > 100 µM

Question: And the TGI [21]?
Answer: 47.5 µM

Question: And the TGI [52]?
Answer: > 100 µM

Question: And the TGI [22]?
Answer: > 100 µM

Question: And the TGI [23]?
Answer: > 100 µM

Question: What about the TGI [24] of the same molecule?
Answer: 26.8 µM

Question: And the TGI [53]?
Answer: > 100 µM

Question: What about the TGI [54] of the same molecule?
Answer: > 100 µM

Question: What about the TGI [26] of the same molecule?
Answer: > 100 µM

Question: And the TGI [27]?
Answer: > 100 µM

Question: And the TGI [28]?
Answer: 45.6 µM

Question: What about the TGI [29] of the same molecule?
Answer: > 100 µM

Question: What about the TGI [30] of the same molecule?
Answer: > 100 µM

Question: What about the TGI [31] of the same molecule?
Answer: > 100 µM

Question: And the TGI [32]?
Answer: > 100 µM

Question: What about the TGI [55] of the same molecule?
Answer: 61.3 µM

Question: And the TGI [33]?
Answer: > 100 µM

Question: And the TGI [34]?
Answer: 71.6 µM

Question: What about the TGI [35] of the same molecule?
Answer: 98.7 µM

Question: What about the TGI [36] of the same molecule?
Answer: > 100 µM

Question: And the TGI [37]?
Answer: > 100 µM

Question: And the TGI [38]?
Answer: > 100 µM

Question: What about the TGI [39] of the same molecule?
Answer: > 100 µM

Question: What about the TGI [40] of the same molecule?
Answer: 85.1 µM

Question: And the TGI [41]?
Answer: > 100 µM

Question: And the TGI [42]?
Answer: 98.3 µM

Question: What about the TGI [43] of the same molecule?
Answer: > 100 µM

Question: What about the TGI [44] of the same molecule?
Answer: > 100 µM

Question: And the TGI [56]?
Answer: 64.9 µM

Question: What about the TGI [46] of the same molecule?
Answer: > 100 µM
